Test [1] relates to Human immunodeficiency virus. Description: Antiviral activity against HIV. It counts as functional, organism-based.
The subject of test [2] is Mycobacterium tuberculosis. Description: Antimycobacterial activity against Mycobacterium tuberculosis at 12.5 ug/ml. The format is functional.

For five molecules, Activity results are on record in ChEMBL document CHEMBL1150968, “Debromosceptrin, an alkaloid from the Caribbean sponge Agelas conifera” (1998).

Activity calls are given as the source filed them. No cut-off for these calls is given here.

For the molecule `Nc1ncc([C@H]2[C@H](CNC(=O)c3ccc[nH]3)[C@@H](CNC(=O)c3ccc[nH]3)[C@@H]2c2cnc(N)[nH]2)[nH]1`, the outcome in test [1] was inactive. In test [2], `Cl.Cl.Nc1ncc([C@H]2[C@H](CNC(=O)c3cc(Br)c[nH]3)[C@@H](CNC(=O)c3cc(Br)c[nH]3)[C@@H]2c2cnc(N)[nH]2)[nH]1` [SCEPTRIN HYDROCHLORIDE] returned an Activity of 14%. Consider `Nc1nc([C@H]2[C@H](CNC(=O)c3ccc[nH]3)[C@@H](CNC(=O)c3cc(Br)c[nH]3)[C@@H]2c2c[nH]c(N)n2)c[nH]1`, for which the result in test [1] was inactive. Same read-out and setting: with `Nc1nc([C@H]2[C@H](CNC(=O)c3cc(Br)c[nH]3)[C@@H](CNC(=O)c3cc(Br)c[nH]3)[C@@H]2c2c[nH]c(N)n2)c[nH]1` the entry was “inactive”.

For `Cl.Cl.Nc1ncc([C@H]2[C@H](CNC(=O)c3ccc[nH]3)[C@@H](CNC(=O)c3cc(Br)c[nH]3)[C@@H]2c2cnc(N)[nH]2)[nH]1` [MONOBROMOSCEPTRIN], the Activity in test [2] was 35%.
